Reference: patent publication US8492346B2, “Methods of use of epsilon inhibitor compounds for the attenuation of pain” (KAI Pharmaceuticals, Inc., priority 2007, dated 2013)
Where no end group is shown, it is not given here.

Experiments:
[1] = Plasma stability in rat sera; assay type: in vitro ADME; conditions: 30 minutes
Procedure: (§1) The plasma and chemical stability of various cargo/carrier peptide constructs described in Example 1 was tested. Plasma stability of the compounds was tested using both human and rat sera and the amount of starting material was determined after 30 minutes of treatment. Chemical stability was evaluated by determining the amount of starting material remaining after 9 days of treatment.
(§2) The plasma stability of various cargo/carrier peptide constructs described in Example 1 was tested using both human and rat sera and the amount of starting material was determined over time to 30 minutes of treatment. The time course data for cargo/carrier peptides KP-1586, KP-1630, and KP-1631 is shown in FIG. 3, the data for peptides KP-1632, KP-1633, and KP-1634 is shown in FIG. 4, and the data for peptides KP-1635, KP-1636, and KP-1637 is shown in FIG. 5.

[2] = Chemical stability of cargo/carrier peptide constructs; assay type: physicochemical
Procedure: as §1
The chemical stability of various cargo/carrier peptide constructs described in Example 1 was tested by examining the relative concentration of the peptides over a time period of more than 200 hours at 37° C.

[3] = Plasma stability in human sera; assay type: in vitro ADME; conditions: plasma; human sera, 30 minutes
Procedure: as §1, §2

Compound	remaining at 0.5 h [1]	Chemical Stability % Remaining at 9 days ([2]; 9 days of treatment)	Chemical stability, time course of relative concentration ([2]; more than 200 hours at 37° C., FIG. 6)	remaining at 0.5 h [3]	remaining at 216 h ([2]; 9 days of treatment)
CC(=O)N[C@@H](CCSSC[C@H](NC(C)=O)C(=O)N[C@@H](CCC(=O)O)C(=O)N[C@@H](C)C(=O)N[C@H](C(=O)N[C@@H](CO)C(=O)N[C@@H](CC(C)C)C(=O)N[C@@H](CCCCN)C(=O)N1CCC[C@H]1C(=O)N[C@H](C(N)=O)[C@@H](C)O)C(C)C)C(=O)N[C@@H](Cc1ccc(O)cc1)C(=O)NCC(=O)N[C@@H](CCCNC(=N)N)C(=O)N[C@@H](CCCCN)C(=O)N[C@@H](CCCCN)C(=O)N[C@@H](CCCNC(=N)N)C(=O)N[C@@H](CCCNC(=N)N)C(=O)N[C@@H](CCC(N)=O)C(=O)N[C@@H](CCCNC(=N)N)C(=O)N[C@@H](CCCNC(=N)N)C(=O)N[C@@H](CCCNC(=N)N)C(=O)O [KP-1637, Ac-C-E-A-V-S-L-K-P-T-NH2]	78%	100%	marked stability	60%	–
EAVSLKPTGGYGRKKRRQRRR-NH2 [KP-1633, E-A-V-S-L-K-P-T-G-G-TaT-NH2]	77%	–	–	83%	99%
